Counter-ions that a name gives are not always drawn. Like-named read-outs stand apart in the source and are kept apart here.

The test system of data set [1] is BBB. As to the kind of experiment: HPLC quantification of TMZ in brain. Conditions: mice. Type of data set: in vivo. As for the experimental part: Approximately 100 mg tissue was homogenised in acidified ammonium acetate (200 μl, 10 mM pH 3.5), zinc sulphate (200 μl, 100 mM) and methanol (400 μl), followed by centrifugation at 10,000×g for 30 minutes at 4° C. Supernatant was taken for HPLC analysis. Separation was carried out with a Water e2695 separation module using 80:20 ratio of acetic acid (0.1% v/v) to methanol at a flow rate of 0.8 ml/min in an Atlantis T3 3 μm HPLC column at 35° C. Detection was performed using a Waters 2489 UV/vis detector at 316 nm. Theophylline was used as an internal standard, measured at 275 nm, and results calculated as the peak ratio of TMZ to theophylline.

Data set [2] relates to BBB. As to the kind of experiment: Doxorubicin biodistribution (HPLC). The protocol:
Organs were removed, dried, weighed, cut into multiple smaller pieces (approximately 100 mg tissue or 100 μl plasma) then thoroughly homogenised with 1 ml lysis buffer (0.25 M sucrose, 5 mM Tris-HCl, 1 mM MgSO4, 1 mM CaCl2, pH 6.7). 200 μl homogenate was then mixed with 1 ml acidified alcohol (70% ethanol, 0.3 N HCl), left overnight at −20° C., then centrifuged at 10,000×g for 30 minutes at 4° C. Supernatant was taken for HPLC analysis. Separation was via a Waters e2695 separation module, mobile phase 35% 10 mM KH2PO4, 65% methanol, flow rate 1 ml/min in an X-Bridge 5 μm column at 40° C. Detection used a Waters e2475 module (ex 480, em 600 nm).
Aryal et al., J. Control. Release, 204, 60-69 (2015); Kovacs et al., 2014; and Wohlfart et al., J Control Release, 154 (1), 103-107 (2011). […] The drug was allowed to circulate for two hours before the animal was perfused with saline. Doxorubicin was then extracted from the vital organs and quantified by HPLC (FIG. 8c). […] FIG. 2b.

Data set [3] concerns BBB. Conditions: mice. The protocol:
For mice, a Pharmascan 7T 16-cm bore horizontal system was operated by a technician. […] Pre-contrast T1-weighted spin echo images were taken (repetition time (TR)=400 ms, echo time (TE)=10.8 ms, field of view (FOV)=2×2 cm, number of excitations (NEX)=8, slice thickness 0.8 mm). […] Post-contrast T1-weighted images were acquired one minute after contrast agent injection. The SNR was calculated by dividing the signal of a ROI (mean pixel intensity) by the standard deviation of the background noise. All image acquisition, SNR measurement and tumour volume measurement was performed by two MRI operating technicians, who were blinded to the study groups.

The subject of data set [4] is BBB. Conditions: mice. The protocol: After 30 minutes circulation, 50 ml phosphate buffered saline (PBS) was perfused through the abdominal aorta. Organs were removed, cut into multiple smaller pieces, rinsed, dried, weighed, homogenised in 500 μl formamide, heated at 60° C. overnight and centrifuged at 21,000×g for 15 minutes. Supernatant absorbance was measured at 620 nm with background correction at 740 nm, and unknowns quantified by standard curve. […] Radu et al., J. Vis. Exp., No. 73, e50062 (2013).
Concentrations from multiple pieces of the same organ were averaged. For imaging of Evans blue extravasation, a method from del Valle and colleagues was adapted. del Valle et al., J. Neurosci. Methods, 174 (1), 42-49 (2008). Mice were intracardially perfused with 50 ml PBS followed by 50 ml of Evans blue (1% w/v) in paraformaldehyde (4% w/v). Cryolesion injury, to induce a local area of BBB damage, was used as a positive control. The brain was embedded in optimal cutting temperature compound (OCT) and cryosectioned into 20 μm thick sections for analysis.
The source holds these as a separate data set.

In data set [5] the test system is DBTRG-05MG human glioblastoma cell line. The data set can be described thus: MTT assay cell viability. To be noted: VEGF up to 100 ng/ml. Type of data set: cell-based. As for the experimental part: DBTRG-05MG human glioblastoma cells were used in this study. DBTRG-05MG cells were routinely cultured at 37° C. in RPMI 1640 media supplemented with 10% FBS, 1 mM sodium pyruvate and 1% penicillin/streptomycin. MTT assay was carried out in accordance with the manufacturer protocol. For GBM tumour generation, 300,000 live DBTRG-05MG cells, suspended in 6 μl sterile saline, were administered to 6 week old BALB/c NU mice by stereotactic injection, […] The location was 2 mm posterior to the bregma, 1.5 mm laterally in the right cerebral hemisphere, and 2.5 mm deep from the dura, thus delivering the cells into the thalamus. Baumann et al., J. Vis. Exp., No. 67, 3-6 (2012). Bone wax was applied to the skull and the skin was closed with sutures. The success rate of xenograft tumour formation was approximately 90%. Animal deaths were recorded when the animal succumbed from tumour progression, or upon sacrifice if they met pre-determined criteria including severe cachexia (loss of >25% starting body weight), inability to feed, and lack of response to toe-pinch stimulus. Gholamin et al., Cureus, 4, 1-14 (2013).
(In general: Formazan colour is commonly taken as a measure of viable cells.)

Data set [6] relates to BBB. To be noted: pigs, VEGF vs control. The text has this: One minute later, a series of three post-contrast images were taken at the same settings. The two pre-contrast images were averaged, and the post contrast image with the highest SNR from each animal was selected for analysis.
In data set [7] the test system is key genes related to BBB integrity. As for the experimental part:
Samples of mouse cerebral cortex weighing approximately 50 mg were homogenised in Trizol, and total RNA extracted via the manufacturer's protocol, then quantified by Nanodrop. Samples were reverse transcribed to cDNA using a SuperScript III Reverse-Transcriptase Kit (Life Technology). OmicsGreen qPCR SYBR Green master mix (Omics Bio, Taiwan) was used to monitor amplification using an Applied Biosystems 7500 Real-Time PCR system. GAPDH was used an internal control.

Another data set relates to brain blood vessels. As for the experimental part:
Mice were anaesthetised and perfused with PBS followed by 100 ml 4% PFA in […] phosphate buffer, pH 7.4. The brain was removed and post-fixed in 4% PFA (overnight, 4° C.) and washed in PBS. Coronal brain sections (100 μm thick) were cut on the same day with a cryomicrotome and processed free floating. Sections were immersed in 4% PFA, 2.5% glutaraldehye in PBS (overnight, 4 ° C.), washed with PBS for 5 minutes for 3 times. The specimens were immersed in 1% osmium tetroxide for 45 minutes, dehydrated and embedded with Spurr's low viscosity resin. The sample was then trimmed and sectioned using a Leica EM UC6 ultramicrotome. The ultrathin sections were then double stained with uranyl acetate and lead citrate. Images were acquired using Jeol JEM 1200EX TEM with an acceleration voltage of 80 KV.

The test system of the next data set is claudin 5. The text has this:
(§1) Brain tumours from mice which died between day 60 to day 70 were selected for immunofluorescence staining. […] Primary antibodies and dilutions used were anti-Ki67 (1:500 GeneTex GTX16667), Isolectin IB4-AlexaFluor 647, anti-GFAP (1:500 AbCam ab68428), anti-Iba1 (1:1000 Wako 019-19741), anti-p-glycoprotein (1:100 AbCam ab170904), anti-pdgfrβ (1:100, ab32570 Abcam), anti-claudin-5 (1:50 34-1600 Thermo Fisher Scientific), anti-CD31 (1:100 550274, BD Pharmingen). Samples were fixed in 4% w/v paraformaldehyde (PFA) pH 6.8 overnight, embedded in paraffin and sectioned. Slides were de-waxed with xylene, rehydrated through graded alcohols to water, then subjected to antigen retrieval, permeabilisation and blocking in accordance with the manufacturers' instructions. Primary antibody was applied overnight at 4° C. diluted in blocking buffer, apart from isolectin, which was applied for one hour at room temperature. Slides were washed 3× with PBS, before the second primary antibody was added and left overnight at 4° C. Secondary antibodies used were goat anti-rabbit IgG-AlexaFluor 568 (Invitrogen A-11011) and goat anti-rat IgG-AlexaFluor 488 (Invitrogen A-11006), applied for one hour at room temperature. At least three separate sections were examined, and at least three images were captured per section. For frozen sections, samples were perfusion fixed then submerged in 4% paraformaldehyde (PFA), cryoprotected in 30% w/v sucrose solution, then frozen in OCT, sectioned and stained as above, continuing on from blocking. H&E staining (Mayers) followed standard lab protocols. Images were captured using a Zeiss AxioScop microscope with AxioFluor objective lenses and AxioVision software, or a Model-Zeiss LSM 700 Stage confocal microscope.
(§2) GraphPad Prism 7.0b (Mac) was used for all statistical analysis and graph generation. For before-after analyses, paired t-test was used, and for grouped analyses one or two-way ANOVA (analysis of variance) with Tukey's post-test to correct for multiple comparisons were used. For tumour survival analyses, deaths were recorded and used to generate Kaplan-Meier survival curves which were compared using Mantel-Cox log rank tests. IVIS images of tumour luminescence and nanoparticle fluorescence were quantified using Living Image 4.0 software for Mac. MRI DICOM images were sorted in MicroDicom (Windows) and SNR calculation was performed in FIJI/ImageJ (Mac) using the measure tool. For heatmap generation, voxels within the animal were compared to the average of a 64*64 voxel region in the corner of the frame and the difference was scaled from 0 to 100, using Python. Adjustments to immunofluorescence image brightness and contrast were made to improve visual clarity and were applied equally to all images within a series. For colocalisation analysis, the raw images were analysed in Zeiss ZEN software. The threshold for no colocalisation was established using the DAPI/CD31 channels, and that threshold was then applied to the other channels. Pericyte alignment analysis was carried out using the freehand line selection tool in ImageJ. Figures were assembled in Affinity Designer (Mac).

For data set [8], the system named is pericyte coverage of blood vessels.
Source text: as §1, §2

The test system of the next data set is P-glycoprotein. Conditions: all time points after VEGF.
Source text: as §1, with “For frozen sections, samples were perfusion fixed then submerged in 4% paraformaldehyde (PFA), cryoprotected in 30% w/v sucrose solution, then frozen in OCT, sectioned and stained as above, continuing on from blocking. H&E staining (Mayers) followed standard lab protocols. Images were captured using a Zeiss AxioScop microscope with AxioFluor objective lenses and AxioVision software, or a Model-Zeiss LSM 700 Stage confocal microscope.” left out

Another data set deals with astrocytes. To be noted: between treatment groups.
Source text: as §1, with “For frozen sections, samples were perfusion fixed then submerged in 4% paraformaldehyde (PFA), cryoprotected in 30% w/v sucrose solution, then frozen in OCT, sectioned and stained as above, continuing on from blocking. H&E staining (Mayers) followed standard lab protocols. Images were captured using a Zeiss AxioScop microscope with AxioFluor objective lenses and AxioVision software, or a Model-Zeiss LSM 700 Stage confocal microscope.” left out

The next data set has as its system Claudin-5. To be noted: after VEGF administration.
Data set [9] has as its system BBB. Conditions: antibody 45 minutes following VEGF; preliminary evidence.
Experimental: The antibody was allowed to circulate for 2 hours, then mice were perfused with 50 mL saline followed by 50 mL paraformaldehyde (4% w/v). The brain was removed, kept in 4% PFA overnight, then processed for frozen sections. As a positive control, 5 μl of antibody was injected directly into the brain prior to perfusion. Frozen sections were then stained using secondary antibody conjugated to Alexa 488. As a negative control, brain sections from an untreated animal were used. As a second positive control, a brain section from an untreated animal was stained with anti-nrCAM using conventional lab techniques (1hr room temperature). All images, aside from the stained positive control, were taken at fixed exposure lengths. The intensity of the green channel was quantified in ImageJ.
Setting [10] is: mouse brain 45 minutes or 4 hours following VEGF.
The mark [11] stands for this setting: GBM tumour region, VEGF pre-treatment.

For `Cn1nnc2c(C(N)=O)ncn2c1=O` [TMZ, Temozolomide], in the data set on BBB [1] (TMZ 20 mg/kg), the “brain concentration of TMZ after VEGF pre-treatment” value is reported as “did not further enhance”. The “TMZ concentration in the brain after VEGF pre-treatment” value in the data set with BBB [1] (VEGF or 10-fold higher VEGF) is listed as “does not significantly increase”.
As for `COc1cccc2c1C(=O)c1c(O)c3c(c(O)c1C2=O)C[C@@](O)(C(=O)CO)C[C@@H]3O[C@H]1C[C@H](N)[C@H](O)[C@H](C)O1` [Doxorubicin, Doxorubicin Hydrochloride], the “doxorubicin concentration in brain after VEGF pre-treatment vs. control” value in the data set with BBB [2] (8 mg/kg 45 minutes after VEGF, mice) was “statistically significant increase”. Also, the “systemic Doxorubicin entering the brain” value with BBB [2] (healthy control mice, 8 mg/kg, two hours circulation) was “less than 0.1%”.
VEGF: the “increase in average SNR of the cortex, post- vs pre-contrast” value with BBB [3] (Gd given 45 minutes following VEGF) stood at 16%. Moreover, the “SNR enhancement of the cortex, post- vs pre-contrast” value in the data set with BBB [3] (Gd given 4 hours after VEGF) is given as “less than 5%”. In addition, in the data set with BBB [3] (VEGF vs control groups), the “signal enhancement of area surrounding central cerebral sinus” value is on record as “no significant difference between the groups”. The “Evans blue uptake in kidney” value in the data set on BBB [4] (45 minutes after VEGF) is “increase”. Also, the “concentration of Evans blue in brain tissue compared to control-treated animals” value in the data set with BBB [4] (Evans blue 45 minutes after VEGF, 30 minutes circulation) turned out to be 4.85 fold. Besides, in the data set with BBB [4] (Evans blue 4 hours following VEGF), the “concentration of Evans blue in brain tissue compared to control” value is reported as “no increase was detected”. For the same compound, the “effect on DBTRG-05MG cell viability” value in [5] was “did not affect”. In addition, in the data set with BBB [6], the “SNR enhancement of the central cerebral sinus” value is recorded as “no significant difference”. Also, the “p-glycoprotein gene expression (Abcb1a)” value in [7] (following VEGF at the given dose) is “No change”. The “expression of BBB transporters Slc2a1 (GLUT-1) and Slc6a8 (CRT)” value in data set [7] (setting [10]) is “increase”. Moreover, in [7] (setting [10]), the “expression of tight junction components Tjp2 (ZO-2) and Cldn5 (Claudin 5)” value is reported as “decrease”. Further, the “morphology of brain blood vessels (TEM)” value was “slightly dilated and lacking adjacent pericytes” in the data set on brain blood vessels (15 minutes following VEGF injection); “no longer dilated” in the data set on brain blood vessels (45 minutes following VEGF); “both vessels and pericytes appeared normal” with brain blood vessels (four hours following VEGF). In addition, the “colocalisation of claudin 5 and CD31” value amounted to 48.5% with claudin 5 (setting [11]); 55.8% in the data set with claudin 5 (healthy brain, 45 minutes following VEGF); 42.7% in the data set with claudin 5 (healthy brain, 4 hours following VEGF). Also, the “pericyte coverage of blood vessels” value in data set [8] (setting [11]) is 28.9%; in data set [8] (healthy brain, 15 minutes after VEGF), 57.6%; in data set [8] (healthy brain, 45 minutes after VEGF), 86.2%; in data set [8] (healthy brain, 4 hours after VEGF) it was 83.0%. For the same compound, the P-glycoprotein staining result in the data set on P-glycoprotein is reported as “appeared uniformly on the membrane of blood vessels at all time points”. For the same compound, in the data set with astrocytes, the “astrocyte morphology (GFAP)” value was “no obvious change”. The “Claudin-5 protein expression (Western blot)” value in the data set with Claudin-5 is on record as “trend towards reduced protein expression”. For the same compound, the “passage of systemically injected IgG antibody into the brain” value in the data set on BBB [9] is “allows the passage of systemically injected IgG antibody into the brain”.
